# Test results reported in PMC12530851, “Design, synthesis, and apoptotic antiproliferative activity of novel dihydropyrimidine-5-carbonitrile/1,2,4-oxadiazole hybrids as dual EGFR/VEGFR-2 inhibitors endowed with antioxidant activity” (RSC Advances, 2025).
# How the values were obtained:
# [1] = test system: p53; assay: p53 level assay in MCF-7 cells; assay type: cell-based, human
# Procedure: (§1) Compounds10k and 10l were tested as caspases-3, 8, 9, Bax and p53 activators and as down-regulators of the anti-apoptotic protein Bcl2 against the MCF-7 breast cancer cell line.[41] Appendix A gives more details.
# P53's ability to eliminate superfluous, damaged, or contaminated cells by apoptosis is critical for the proper regulation of cell proliferation in multicellular organisms.[49] p53 is activated by both external and internal stress signals, allowing for nuclear accumulation in an active state. As a result, p53 induces either reversible cell growth arrest or apoptosis. The aforesaid activity is necessary for tumor suppression.[50]
# [2] = Cell viability assay (MTT) on normal MCF-10A cells; assay type: cell-based; details: human, MCF-10A mammary gland epithelial cells (normal cell line), MCF-10A normal cells, four-day incubation
# Procedure: The impact of novel compounds 10a–l on the viability of a normal human cell line, specifically human mammary gland epithelial cells (MCF-10A), was assessed to ascertain the safety of the newly synthesized compounds. The MTT test was employed to assess the cell viability of the novel compounds after a four-day incubation with MCF-10A cells.[29,37] Refer to Appendix A for more experimental details.
# The effect of new compounds 10a–l on the viability of a normal human cell line, namely human mammary gland epithelial cells (MCF-10A), was evaluated to determine the safety of the newly synthesized compounds.
# 4.2. Biological evaluation
# 4.2.1 Cell Viability assay (MTT assay)
# MTT assay was performed to investigate the effect of the synthesized compounds on mammary epithelial cells (MCF-10A). The cells were propagated in medium consisting of Ham's F-12 medium/ Dulbecco's modified Eagle's medium (DMEM) (1:1) supplemented with 10% foetal calf serum, 2 mM glutamine, insulin (10 μg/mL), hydrocortisone (500 ng/mL) and epidermal growth factor (20 ng/mL). Trypsin ethylenediamine tetra acetic acid (EDTA) was used to passage the cells after every 2-3 days. 96-well flat-bottomed cell culture plates were used to seed the cells at a density of 10^4 cells mL-1. The medium was aspirated from all the wells of culture plates after 24 h followed by the addition of synthesized compounds (in 200 μL medium to yield a final concentration of 0.1% (v/v) dimethyl sulfoxide) into individual wells of the plates. Four wells were designated to a single compound. The plates were allowed to incubate at 37°C for 96 h. Afterwards, the medium was aspirated and 3-[4,5-dimethylthiazol-2-yl]-2,5-diphenyltetrazolium bromide (MTT) (0.4 mg/mL) in medium was added to each well and subsequently incubated for 3 h. The medium was aspirated and 150 μL dimethyl sulfoxide (DMSO) was added to each well. The plates were vortexed followed by the measurement of absorbance at 540 nm on a microplate reader. […]
# [3] = test system: Bcl-2; assay: Bcl-2 level assay in MCF-7 cells; assay type: cell-based, human; details: for Bcl-2 Fold reduction: vs untreated control
# Procedure: as §1
# The Bcl-2 protein family, which includes pro-apoptotic proteins (Bax) and anti-apoptotic proteins (Bcl-2), primarily regulates apoptosis.[46] […] Consequently, we assessed the expression levels of Bcl-2 and Bax proteins in MCF-7 breast cancer cells treated with compounds 10k and 10l, Table 6. […]
# 4.2.8. Bcl-2 inhibition assay
# Mix all the reagents thoroughly without foaming before use. Wash the microwells twice with approximately 300 μL Wash Buffer per well with thorough aspiration of microwell contents between washes. Take caution not to scratch the surface of the microwells. After the last wash, empty the wells and tap microwell strips on absorbent pad or paper towel to remove excess Wash Buffer. Use the microwell strips immediately after washing or place upside down on a wet absorbent paper for not longer than 15 minutes. […] Add 100 μL of Sample […]
# Diluent in duplicate to all standard wells and to the blank wells. Prepare standard (1:2 dilution) in duplicate ranging from 32 ng/mL to 0.5 ng/mL. Add 100 μL of Sample Diluent, in duplicate, to the blank wells. Add 80 μL of Sample Diluent, in duplicate, to the sample wells. Add 20 μL of each Sample, in duplicate, to the designated wells. Add 50 μL of diluted biotin-conjugate to all wells, including the blank wells. Cover with a plate cover and incubate at room temperature, on a microplate shaker at 100 rpm if available, for 2 hours. Remove plate cover and empty the wells.
# Wash microwell strips 3 times as described in step 2. Add 100 μL of diluted Streptavidin-HRP to all wells, including the blank wells. Cover with a plate cover and incubate at room temperature, on a microplate shaker at 100 rpm if available, for 1 hour. Remove the plate cover and empty the wells. Wash microwell strips 3 times as described in step 2. Proceed to the next step. Pipette 100 μl of mixed TMB Substrate Solution to all wells, including the blanks. […] The point, at which the substrate reaction is stopped, is often determined by the ELISA reader. Many ELISA readers record absorbance only up to 2.0
# O.D. Therefore, the color development within individual microwells must be watched by the person running the assay and the substrate reaction stopped before positive wells are no longer properly detectable. […] Results must be read immediately after the Stop Solution is added or within one hour if the microwell strips are stored at 2 - 8°C in the dark. Read the absorbance of each microwell on a spectrophotometer using 450 nm as the primary wavelength.
# [4] = test system: four human cancer cell lines (A-549, MCF-7, Panc-1, HT-29); assay: Antiproliferative assay, average over four cancer cell lines; assay type: cell-based; details: for GI50: Homo sapiens, average IC50 across A-549, MCF-7, Panc-1, HT-29
# Procedure: The given findings were obtained from at least two distinct studies, each comprising three repeats per concentration. Appendix A (SI File) provides experimental details.[38,39] […]
# 4.2.2. Assay for antiproliferative effect
# To explore the antiproliferative potential of compounds propidium iodide fluorescence assay was performed using different cell lines such as Panc-1 (pancreas cancer cell line), MCF-7 (breast […]
# respectively. To calculate the total nuclear DNA, a fluorescent dye (propidium iodide, PI) is used which can attach to the DNA, thus offering a quick and precise technique. PI cannot pass through the cell membrane and its signal intensity can be considered as directly proportional to quantity of cellular DNA. Cells whose cell membranes are damaged or have changed permeability are counted as dead ones. The assay was performed by seeding the cells of different cell lines at a density of 3000-7500 cells/well (in 200μl medium) in culture plates followed by incubation for 24h at 37 °C […]
# The medium was removed; the compounds were added to the plates at 10 μM concentrations (in 0.1% DMSO) in triplicates, followed by incubation for 48h. DMSO (0.1%) was used as control. After incubation, medium was removed followed by the addition of PI (25 μl, 50μg/mL in water/medium) to each well of the plates. At - 80 °C, the plates were allowed to freeze for 24 h, followed by thawing at 25 °C. A fluorometer (Polar-Star BMG Tech) was used to record the readings at excitation and emission wavelengths of 530 and 620 nm for each well. The percentage cytotoxicity of compounds was calculated using […]
# Where ATC= Absorbance of treated cells and AC= Absorbance of control. […]
# positive control in the assay. […]
GI50 [4] [nM],SMILES,p53 [1] [pg/mL],"viability at 96 h, 50 µM [2] [%]",Bcl-2 [3] [ng/mL],Bcl-2 Fold reduction [3] [fold],"Potency relative to erlotinib, the other three cell lines ([4]; A-549, Panc-1, HT-29, greater potency than erlotinib) [fold]"
22,"COc1ccc(-c2nc(SCc3nc(-c4ccc(Cl)cc4)no3)[nH]c(=O)c2C#N)cc1 [Compound 10k, 2-(((3-(4-Chlorophenyl)-1,2,4-oxadiazol-5-yl)methyl)thio)-4-(4-methoxyphenyl)-6-oxo-1,6-dihydropyrimidine-5-carbonitrile]",330 ± 2,90,1.20 ± 0.001,4,1.3
26,"COc1ccc(-c2noc(CSc3nc(-c4ccc(OC)cc4)c(C#N)c(=O)[nH]3)n2)cc1 [Compound 10l, 2-(((3-(4-Methoxyphenyl)-1,2,4-oxadiazol-5-yl)methyl)thio)-4-(4-methoxyphenyl)-6-oxo-1,6-dihydropyrimidine-5-carbonitrile]",285 ± 2,91,1.50 ± 0.001,3,
